Results as given in patent publication US20190083407A1, “CRYSTALLIZATION METHOD AND BIOAVAILABILITY” (priority 2015, published 2019).
Read-outs that look alike come from different tables or passages of the source. Each block holds one compound with its values, some of them ahead of it.

What was measured:
[1] = Aqueous solubility at room temperature; details: for Aqueous solubility, mMol/L (complex): as complex
[2] = FDA Summary Basis of Approval; cited from earlier work
[3] = cited from earlier work; for Mortality: solutions in capsules
[4] = 72 hr dog study; cited from earlier work
[5] = Rat PK study: plasma concentrations of zoledronic acid from pure zoledronic acid and complexes delivered IV, oral gavage and ID; format: in vivo, Sprague-Dawley Rats
Procedure: These studies were conducted on rats and dogs as they are suitable animal models for zoledronic acid. This can be attributed to the fact that both animals have historically been used in the safety evaluation and PK screening studies and are recommended by appropriate regulatory agencies. […] Pure zoledronic acid and zoledronic acid complexes prepared by the methods in this invention were delivered to the rats and dogs through IV or oral routes. Additional tests included ID administration in rats and administration of enteric coated capsules in dogs. All compounds delivered were well tolerated by the animals with no adverse events or physical abnormalities noticed. […] USA. Some animals have surgical catheters (jugular vein and intraduodenum) were implanted to the animals prior to the studies. […] Surgical catheters (jugular vein) were implanted prior to the studies. […] Routes of Rat Dosing: Zoledronic acid and its complex formulations were administered through IV, oral and ID. […] The dose of each rat was calculated on a per rat basis (not on an average weight of all the rats in the lot). • ii. Oral gavage administration: solid suspensions were administered. The dose of each rat was calculated on a per rat basis (not on an average weight of all the rats in the lot). […] Duodenal cannula administration: solid suspensions were administered. The dose of each rat was calculated on a per rat basis (not on an average weight of all the rats in the lot). […] Groups: Two major groups of animals were selected for the study. • Group 1 consists of rat studies. […] Group I (IV Administration): Group Members, Designated IV Doses are Listed Below: [table] Group II (oral gavage): Group designations and oral doses are listed below: […] Group III (ID Administration): Group Designations and Oral Doses are Listed Below: [table] Rat blood sample collection, handling and analysis: […] Samples were thawed on the day of analysis and the amount of zoledronic acid in the samples was quantified by analyzed by LC/MS/MS method. Rat study: […]

Compound: NCCCCC(N)C(=O)O.O.O=P(O)(O)C(O)(Cn1ccnc1)P(=O)(O)O [ZA: DL-Lysine monohydrate]
Aqueous solubility, Conc. [1]: 13.9 mg/mL
Aqueous solubility, mMol/L (complex) [1]: 31.86 mmol/L

Compound: NCCCCC(N)C(=O)O.O.O.O=P(O)(O)C(O)(Cn1ccnc1)P(=O)(O)O [ZA: L-Lysine dihydrate]
Aqueous solubility, Conc. [1]: 8.22 mg/mL
Aqueous solubility, mMol/L (complex) [1]: 18.09 mmol/L

Compound: O=P(O)(O)C(O)(Cn1ccnc1)P(=O)(O)O [Zoledronic acid, (1-hydroxy-2-imidazol-1-yl-1-phosphono-ethyl)phosphonic acid]
Oral bioavailability [2]: less than 1%
Mortality (dogs) ([3]; 10 mg/kg administered directly to the stomach): ⅓
Mortality (dogs) ([3]; 25 mg/kg, same formulation): 3/3
AUC 0-24 hr ([3]; dogs, 10 mg/kg administered directly to the stomach): 1254 ng·h/mL
AUC 0-24 ([3]; dogs, 25 mg/kg, same formulation): 7319 ng·h/mL
Mortality ([3]; dogs, 10 mg/kg/day, one formulation): 30%
Mortality ([3]; dogs, another formulation, 25 mg/Kg): 100%
AUC [4]: 2217 ng·h/mL

Compound: O=P([O-])(O)C(O)(Cn1ccnc1)P(=O)([O-])O.[Na+].[Na+] [disodium zoledronate salt]
AUC [4]: 4073 ng·h/mL

Average plasma concentration of 3 rats ([5]; ID 5 mg/kg zoledronic acid equivalent, PEG 400, 8 hour): 0.00 ng/mL
Average plasma concentration of 3 rats ([5]; ID 5 mg/kg zoledronic acid equivalent, PEG 400, 24 hour): 0.00 ng/mL
Average plasma concentration of 3 rats ([5]; PO 5 mg/kg zoledronic acid equivalent, PEG 400, 24 hour): 0.00 ng/mL
Compound: Zoledronic, nicotinamide, and water complex
